Data reported in article PMC10445290, “Enantiomeric Fractions Reveal Differences in the Atropselective Disposition of 2,2′,3,5′,6-Pentachlorobiphenyl (PCB 95) in Wildtype, Cyp2abfgs-Null, and CYP2A6-Humanized Mice” (Chemical Research in Toxicology, 2023).
Like-named read-outs stand apart in the source and are kept apart here.

What was measured:
[1] = cited from earlier work
[2] = Levels of PCB 95 and its hydroxylated metabolites in adipose, blood, brain and liver 24 h after a single oral dose (GC-MS/MS); format: in vivo, mice; settings: for Levels in blood / Levels in adipose / Levels in liver / concentration at 24 h: 1 mg/kg; for concentration at 24 h: po
Protocol: Adult male and female wild-type (WT) C57BL/6 mice, KO, and KI mice (4 months old) were exposed to racemic PCB 95. Mice were randomly assigned to exposure groups and received a single oral dose of PCB 95 (1.0 mg/kg) in stripped corn oil (10 mL/kg; lot# A0395699; cat# 801-03-7; Fisher Scientific) via gavage (5–7 mice per group). Control animals received corn oil alone (1–3 mice per group) to assess the potential background contamination with PCB 95. Animals were euthanized 24 h after PCB 95 exposure. Blood was collected from the heart and placed in pre-weighed glass vials with 80 μL of ethylenediaminetetraacetic acid solution (EDTA, 7.5%, w/w). The amount of blood in each vial was determined by weight prior to sample extraction. Adipose, brain, and liver tissues were excised from each animal and individually wrapped in aluminum foil. Samples were stored at −80 °C in separate plastic bags and shipped on dry ice to the University of Iowa for analysis.
PCB 95 and its hydroxylated metabolites were extracted from adipose (0.06 ± 0.01 g), brain (0.19 ± 0.03 g) and liver tissues (0.49 ± 0.07 g) by pressurized liquid extraction (PLE) with a Dionex ASE200 system (Dionex, Sunnyvale, CA, USA).[45] Tissues were homogenized with 2 g of pre-cleaned diatomaceous earth (Thermo Fisher Scientific, Pittsburgh, PA, USA) and placed in extraction cells loaded with 10 g of pre-extracted Florisil (60–100 mesh, Fisher Scientific, Pittsburgh, PA, USA). Tissue samples were then spiked with recovery standards [50 ng of PCB 117 in 50 μL of isooctane and 50 ng of 4′-159 (2′,3,3′,5,5′,6′-hexachlorobiphenyl-4-ol) in 50 μL of methanol]. For ongoing precision recovery (OPR) samples; recovery standard, internal standard, PCB 95, and its metabolites (50 ng each) were spiked to the method blank (DE only) and tissues from control animals. Cells were extracted with hexane–dichloromethane–methanol (48:43:9, v/v/v) at 100 °C and 1500 psi (10 MPa), with preheat equilibration for 6 min, 60% of cell flush volume, and 1 static cycle of 5 min. The extracts were concentrated to approximately 1 mL with a TurboVap II (Biotage, LLC, NC, USA) and transferred to new glass tubes with 1 mL of hexane. The solvent was evaporated to near dryness under a gentle stream of nitrogen, and extracts were redissolved in 1 mL of hexane.
PCB 95 and its hydroxylated metabolites were extracted from whole blood (0.45 ± 0.13 g) using a published liquid–liquid extraction procedure.[29] Briefly, blood samples were thawed, and 3 mL of aqueous 1% KCl solution was added to each sample. Recovery standards (50 ng of PCB 117 in 50 μL of isooctane and 50 ng of 4′-159 in 50 μL of methanol) were spiked to all samples, including OPR samples, before extraction. Subsequently, 1 mL of 6 M HCl, 5 mL of 2-propanol, and 5 mL of 1:1 hexane–MTBE mixture (v/v) were added to the blood samples. The samples were inverted for 5 min and centrifuged at 1690g for 5 min to facilitate the phase separation. Next, the organic phases were transferred to new glass tubes, and the aqueous phases were re-extracted with 3 mL of hexane. Next, three mL of aqueous 1% KCl were added to the combined organic extracts, and samples were inverted and centrifuged as described above. The organic phase was transferred to a new tube, and the aqueous phase was re-extracted with 3 mL of hexane. The combined organic extracts were evaporated to near dryness using a Savant SpeedVac SPD210 (Thermo Scientific, Waltham, MA, US), and each sample was reconstituted with 0.5 mL of hexane.
Five drops of methanol and 0.5 mL of diazomethane (CH2N2; about 0.1 mmol) in diethyl ether were added to the tissue or blood extracts to derivatize the OH-PCBs.[45] Diazomethane rapidly converts the phenolic hydroxyl groups of OH-PCBs to methoxy groups (i.e., −OH → −OCH3). All samples were stored at 4 °C for approximately 16 h. Excess diazomethane evaporated under a gentle stream of nitrogen in a fume hood, followed by adding 0.5 mL of hexane. […]

[3] = cited from earlier work; remark: listed apart in the source
[4] = MKI, male CYP2A6-humanized mice, single oral PCB 95 1.0 mg/kg, mean ± SD
[5] = MWT, male wildtype mice, single oral PCB 95 1.0 mg/kg, mean ± SD
[6] = collected in 2001 from Japanese women

In the case of Clc1ccc(Cl)c(-c2c(Cl)ccc(Cl)c2Cl)c1 [PCB 95, 2,2′,3,5′,6-pentachlorobiphenyl], the “Mean PCB 95 blood level” value ([1]; corresponding dams, exposure via diet through gestation and lactation) is listed as 16 ng/g, the “PCB 95 levels in the liver” value ([1]; corresponding offspring on postnatal day 21) is listed as 150 ng/g wet weight and the “PCB 95 levels in brain” value ([1]; dams euthanized on postnatal day 21) is listed as 47 ng/g. The “PCB 95 levels in adipose tissue” value ([1]; dams exposed during gestation and lactation, high dose 6.0 mg/kg bw/d) was 11,600 ng/g, the “PCB 95 levels in adipose tissue” value ([1]; dams exposed during gestation and lactation, low dose 0.1 mg/kg bw/d) was 170 ng/g and the “PCB 95 levels in blood” value ([1]; dams exposed orally during gestation and lactation, high dose 6.0 mg/kg bw/d) was 52 ng/g. For the same molecule, the “PCB 95 levels in blood” value ([1]; dams exposed orally during gestation and lactation, low dose 0.1 mg/kg bw/d) was “not detected”, the “PCB 95 levels in the liver” value ([1]; dams exposed throughout gestation and lactation) was 120 ng/g wet weight and the “PCB 95 levels in the liver” value ([1]; dams exposed to racemic PCB 95 during gestation and lactation, high dose 6.0 mg/kg bw/d) was 700 ng/g. The “PCB 95 levels in the liver” value ([1]; dams exposed to racemic PCB 95 during gestation and lactation, low dose 0.1 mg/kg bw/d) was 12 ng/g, the “PCB 95 levels in adipose tissue” value ([1]; female mice, sub-chronic oral exposure, 0.1 mg/kg bw/d) was 1800 ng/g and the “PCB 95 levels in adipose tissue” value ([1]; female mice, sub-chronic oral exposure, 6.0 mg/kg bw/d) was 47,000 ng/g. For the same molecule, the “PCB 95 levels in blood” value ([1]; female mice, subchronic oral exposure, 0.1 mg/kg bw/d) was 90 ng/g, the “PCB 95 levels in blood” value ([1]; female mice, subchronic oral exposure, 6.0 mg/kg bw/d) was 1200 ng/g and the “PCB 95 levels in brain” value ([1]; mice exposed orally to different doses throughout pregnancy, below the detection limit) was under 140 ng/g. For the same molecule, the “PCB 95 levels in brain” value ([1]; offspring of pregnant mice exposed developmentally, postnatal day 7) was 50 ng/g, the “PCB 95 levels in brain” value ([1]; offspring of pregnant mice exposed developmentally, postnatal day 21) was 70 ng/g and the “PCB 95 levels in blood” value ([1]; postnatal day 21 pups exposed throughout gestation and lactation via the maternal diet) was 36 ng/g. For the same molecule, the Levels in blood ([2]; FKO, female Cyp2abfgs-null mice, single oral PCB 95 1.0 mg/kg, mean ± SD) was 9 ng/g tissue, the Levels in adipose ([2]; FWT, female wildtype mice, single oral PCB 95 1.0 mg/kg, mean ± SD) was 1300 ng/g tissue and the Levels in blood [2, 4] was 16 ng/g tissue. The Levels in liver [2, 4] was 183 ng/g tissue, the Levels in adipose ([2]; MKO, male Cyp2abfgs-null mice, single oral PCB 95 1.0 mg/kg, mean ± SD) was 690 ng/g tissue and the Levels in adipose [2, 5] was 1300 ng/g tissue. The Levels in liver [2, 5] was 96 ng/g tissue, the Kp at 24 h ([2]; both sexes, C57BL/6 (wild-type), KO and KI, mouse, adipose / whole blood, all six exposure groups, single oral 1.0 mg/kg, read-out: Mean adipose levels, times higher than the blood levels) was 42 to 68 and the concentration at 24 h ([2]; both sexes, C57BL/6 (wild-type), KO and KI, mouse, brain, range across all three genotypes and both sexes, single oral 1.0 mg/kg, read-out: PCB 95 levels in the whole brain) was 13 to 21 ng/g. It also gave a concentration at 24 h ([2]; female, C57BL/6 (wild-type), mouse, adipose, FWT, female wildtype mice, single oral PCB 95 1.0 mg/kg, mean ± SD, read-out: Levels in adipose) of 1310 ± 405 ng/g, a concentration at 24 h ([2]; female, C57BL/6 (wild-type), mouse, brain, FWT, female wildtype mice, single oral PCB 95 1.0 mg/kg, mean ± SD, read-out: Levels in brain) of 19.2 ± 7.3 ng/g and a concentration at 24 h ([2]; female, C57BL/6 (wild-type), mouse, liver, FWT, female wildtype mice, single oral PCB 95 1.0 mg/kg, mean ± SD, read-out: Levels in liver) of 120 ± 42.1 ng/g. The concentration at 24 h ([2]; female, C57BL/6 (wild-type), mouse, whole blood, FWT, female wildtype mice, single oral PCB 95 1.0 mg/kg, mean ± SD, read-out: Levels in blood) was 9.1 ± 2.7 ng/g, the concentration at 24 h ([2]; female, CYP2A6-humanized (KI), mouse, adipose, FKI, female CYP2A6-humanized mice, single oral PCB 95 1.0 mg/kg, mean ± SD, read-out: Levels in adipose) was 824 ± 458 ng/g and the concentration at 24 h ([2]; female, CYP2A6-humanized (KI), mouse, brain, FKI, female CYP2A6-humanized mice, single oral PCB 95 1.0 mg/kg, mean ± SD, read-out: Levels in brain) was 19.7 ± 6.8 ng/g. The concentration at 24 h ([2]; female, CYP2A6-humanized (KI), mouse, liver, FKI, female CYP2A6-humanized mice, single oral PCB 95 1.0 mg/kg, mean ± SD, read-out: Levels in liver) was 114 ± 44.1 ng/g, the concentration at 24 h ([2]; female, CYP2A6-humanized (KI), mouse, whole blood, FKI, female CYP2A6-humanized mice, single oral PCB 95 1.0 mg/kg, mean ± SD, read-out: Levels in blood) was 12.9 ± 15.4 ng/g and the concentration at 24 h ([2]; female, Cyp2abfgs-null (KO), mouse, adipose, FKO, female Cyp2abfgs-null mice, single oral PCB 95 1.0 mg/kg, mean ± SD, read-out: Levels in adipose) was 859 ± 317 ng/g. It also gave a concentration at 24 h ([2]; female, Cyp2abfgs-null (KO), mouse, brain, FKO, female Cyp2abfgs-null mice, single oral PCB 95 1.0 mg/kg, mean ± SD, read-out: Levels in brain) of 20.6 ± 8.2 ng/g, a concentration at 24 h ([2]; female, Cyp2abfgs-null (KO), mouse, liver, FKO, female Cyp2abfgs-null mice, single oral PCB 95 1.0 mg/kg, mean ± SD, read-out: Levels in liver) of 109 ± 29.7 ng/g and a concentration at 24 h ([2]; female, Cyp2abfgs-null (KO), mouse, whole blood, FKO, female Cyp2abfgs-null mice, single oral PCB 95 1.0 mg/kg, mean ± SD, read-out: Levels in blood) of 8.6 ± 4.2 ng/g. For the same molecule, the concentration at 24 h ([2]; male, C57BL/6 (wild-type), mouse, adipose, MWT, male wildtype mice, single oral PCB 95 1.0 mg/kg, mean ± SD, read-out: Levels in adipose) was 1320 ± 297 ng/g, the concentration at 24 h ([2]; male, C57BL/6 (wild-type), mouse, brain, MWT, male wildtype mice, single oral PCB 95 1.0 mg/kg, mean ± SD, read-out: Levels in brain) was 19.3 ± 4 ng/g and the concentration at 24 h ([2]; male, C57BL/6 (wild-type), mouse, liver, MWT, male wildtype mice, single oral PCB 95 1.0 mg/kg, mean ± SD, read-out: Levels in liver) was 96.3 ± 31.7 ng/g. It also gave a concentration at 24 h ([2]; male, C57BL/6 (wild-type), mouse, whole blood, MWT, male wildtype mice, single oral PCB 95 1.0 mg/kg, mean ± SD, read-out: Levels in blood) of 14.1 ± 2 ng/g, a concentration at 24 h ([2]; male, CYP2A6-humanized (KI), mouse, adipose, MKI, male CYP2A6-humanized mice, single oral PCB 95 1.0 mg/kg, mean ± SD, read-out: Levels in adipose) of 734 ± 355 ng/g and a concentration at 24 h ([2]; male, CYP2A6-humanized (KI), mouse, brain, MKI, male CYP2A6-humanized mice, single oral PCB 95 1.0 mg/kg, mean ± SD, read-out: Levels in brain) of 13.3 ± 5.7 ng/g. For the same molecule, the concentration at 24 h ([2]; male, CYP2A6-humanized (KI), mouse, liver, MKI, male CYP2A6-humanized mice, single oral PCB 95 1.0 mg/kg, mean ± SD, read-out: Levels in liver) was 183 ± 190 ng/g, the concentration at 24 h ([2]; male, CYP2A6-humanized (KI), mouse, whole blood, MKI, male CYP2A6-humanized mice, single oral PCB 95 1.0 mg/kg, mean ± SD, read-out: Levels in blood) was 15.6 ± 18.3 ng/g and the concentration at 24 h ([2]; male, Cyp2abfgs-null (KO), mouse, adipose, MKO, male Cyp2abfgs-null mice, single oral PCB 95 1.0 mg/kg, mean ± SD, read-out: Levels in adipose) was 692 ± 93 ng/g. It also gave a concentration at 24 h ([2]; male, Cyp2abfgs-null (KO), mouse, brain, MKO, male Cyp2abfgs-null mice, single oral PCB 95 1.0 mg/kg, mean ± SD, read-out: Levels in brain) of 13.1 ± 6.1 ng/g, a concentration at 24 h ([2]; male, Cyp2abfgs-null (KO), mouse, liver, MKO, male Cyp2abfgs-null mice, single oral PCB 95 1.0 mg/kg, mean ± SD, read-out: Levels in liver) of 146 ± 42.6 ng/g and a concentration at 24 h ([2]; male, Cyp2abfgs-null (KO), mouse, whole blood, MKO, male Cyp2abfgs-null mice, single oral PCB 95 1.0 mg/kg, mean ± SD, read-out: Levels in blood) of 10.6 ± 7.4 ng/g. For the same molecule, the “PCB 95 concentration in maternal serum” value ([3]; MARBLES cohort, detected in only one sample) was 0.1 ng/g wet weight, the “PCB 95 in human adipose tissue” value ([3]; collected 2008 to 2009 during abdominal operations, Southeast China) was “below the limit of detection” and the “PCB 95 in breast adipose tissue” value [3, 6] was “below the detection limit”. The “PCB 95 in serum” value [3, 6] was “below the detection limit”, the “Average PCB 95 levels in postmortem brain tissues” value ([3]; older donors aged 58 to 80, United States) was 0.13 ng/g and the “PCB 95 in human liver samples” value ([3]; small human cohort from Belgium (N = 11)) was “below the limit of detection”. The “PCB 95 in postmortem brain tissues” value ([3]; younger donors aged 0 days to 1 year) was “not detected”.
